Results: patent US20100137266A1, “TREATMENT OF INSULIN RESISTANCE AND DISORDERS ASSOCIATED THEREWITH” (UNIVERSITETET I OSLO, priority 2006, published 2010)

Assays:
[1] = system: human myotubes; assay: Palmitate uptake and lipid distribution: TAG synthesis from [1-14C]palmitic acid in myotubes; type: cell-based
Procedure: FIG. 3. 22-hydroxycholesterols influence TAG synthesis from palmitic acid differently than T0901317. Human myoblasts were allowed to differentiate for 2 days, and then exposed to vehicle (0.1% DMSO), 1 μM T0901317, or 10 μM 22-S-hydroxycholesterol (22-S-HC) for 4 days. Differentiated myotubes were then incubated with [1-^14C]PA (0.5 μCi/ml, 0.1 mM) for 4 h before triacylglycerol (TAG) levels were determined. Results present means±SEM (n=4; independent muscle cell donors). *p<0.05 vs control, **p<0.05 vs all other treatments.
Human skeletal muscle cell cultures. A cell bank of satellite cells was established from muscle biopsy samples of the M. vastus lateralis of 6 healthy volunteers, age 25.7 years (±1.4), with BMI 21.6 (±1.0) and fasting glucose and insulin within normal range. The biopsies were obtained with informed consent and by approval of the National Committee for Research Ethics, Oslo, Norway. Muscle cell cultures free of fibroblasts were established by the method of Henry et al. (Diabetes, 44, 936-946, 1995), with minor modifications. Briefly, muscle tissue was dissected in Ham's F-10 media at 4° C., dissociated by three successive treatments with 0.05% trypsin/EDTA, and satellite cells were re-suspended in SkGM with 2% FCS and no added insulin. The cells were grown on culture wells coated with ECM gel (Apmis, 109, 726-734, 2001). At about 80% confluence, fusion of myoblasts into multinucleated myotubes was achieved by growth in DMEM with 2% FCS. All cells used were at passage 4 to 6. […]
Palmitate uptake and lipid distribution. […] The radioactivity in the cell fraction (20 μl) was quantified by liquid scintillation (Packard Tri-Carb 1900 TR) (Gaster et al, Diabetes, 53, 542-548, 2004). The protein content of each sample was determined (Bradford, Anal. Biochem., 72, 248-254, 1976), and triacylglycerol (TAG) was extracted (Gaster et al, supra). Briefly, the homogenized cell fraction (220 μl) was extracted, lipids separated by thin-layer chromatography and the radioactivity was quantified by liquid scintillation.

[2] = system: Myotubes from type II diabetic subjects; assay: T0901317 response in myotubes from type II diabetic vs healthy subjects; type: cell-based, human; conditions: 1 μM; type II diabetic myotubes compared to myotubes from healthy donors
Procedure: FIG. 9. […] T0901317 (1 μM) response of (A) palmitate uptake, distribution into cellular lipids and oxidation and (B) glucose uptake (GT), oxidation (GOX) and glycogen synthesis (GS) in myotubes from healthy donors and donors with type 2 diabetes #p≦0.05 vs control myotubes.

[3] = target: T1, LXRα (Homo sapiens, UniProt Q13133); conditions: Forman et al.; cited from earlier work
T1 construct: host or cells: CV-1 cells (fibroblasts)
T1 sequence (Q13133 1-447): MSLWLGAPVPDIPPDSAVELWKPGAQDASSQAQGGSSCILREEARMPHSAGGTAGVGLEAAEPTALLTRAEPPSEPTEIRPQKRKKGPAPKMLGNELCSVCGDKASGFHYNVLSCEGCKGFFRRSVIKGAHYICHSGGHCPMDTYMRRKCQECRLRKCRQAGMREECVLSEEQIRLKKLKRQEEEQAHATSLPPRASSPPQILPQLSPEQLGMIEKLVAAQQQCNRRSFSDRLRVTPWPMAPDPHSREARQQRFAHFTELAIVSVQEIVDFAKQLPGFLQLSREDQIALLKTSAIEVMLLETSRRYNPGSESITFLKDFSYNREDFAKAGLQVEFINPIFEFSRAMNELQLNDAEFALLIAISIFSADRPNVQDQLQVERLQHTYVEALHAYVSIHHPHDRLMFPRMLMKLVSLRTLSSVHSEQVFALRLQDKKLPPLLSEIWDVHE

[4] = system: LXR target genes; assay: Gene expression of LXR target genes in myotubes by Real-Time RT-PCR; type: cell-based, human; conditions: after 22-S-HC treatment; data not shown

| Structure (SMILES) | TAG synthesis from labeled palmitate ([1]; 1 μM T0901317 for 4 days, [1-14C]PA 4 h, vs control) | glucose uptake in response to T0901317 [2] | palmitate oxidation to CO2 in response to T0901317 [2] | uptake and incorporation of palmitate into complex lipids in response to T0901317 [2] | regulation of LXRα in fibroblasts (CV-1 cells) [3] | synthesis of TAG compared to T0901317 treatment ([1]; 10 μM for 4 days vs 1 μM T0901317) | reduction in incorporation of labeled palmitate into TAG ([1]; 10 μM for 4 days, compared to control myotubes) | FAS mRNA expression observed on a micro fluid card [4] |
| --- | --- | --- | --- | --- | --- | --- | --- | --- |
| O=S(=O)(c1ccccc1)N(CC(F)(F)F)c1ccc(C(O)(C(F)(F)F)C(F)(F)F)cc1 [Example T0901317] | increased | reduced | absence | elevated | – | – | – | – |
| CC(C)CC[C@@H](O)[C@@H](C)[C@H]1CC[C@H]2[C@@H]3CC=C4C[C@@H](O)CC[C@]4(C)[C@H]3CC[C@]12C [Example 22-R-HC, 22-R-hydroxycholesterol] | – | – | – | – | positively regulates | – | – | – |
| CC(C)CC[C@H](O)[C@@H](C)[C@H]1CC[C@H]2[C@@H]3CC=C4C[C@@H](O)CC[C@]4(C)[C@H]3CC[C@]12C [Example 22-S-HC, 22-S-hydroxycholesterol] | – | – | – | – | inactive | significantly reduced | 50% | significantly reduced |
